Laboratory results taken from PubChem BioAssay AID2060605 (Molecular Pharmacology Branch, DTP, NCI, 2025).

System: 947758-054-R-J2-PDC spheroid growth, percent test/control
Assay: Anticancer human tumor 947758-054-R-J2-PDC patient-derived colon adenocarcinoma cell line growth inhibition [CLK]
Conditions: spheroids with HUVEC and MSC; for IC50: curve of first compound; for viability, T/C: stronger effect = lower value
Outline: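 Multi-cell-type spheroids combined patient-derived tumor cells with HUVEC endothelial cells and human mesenchymal stem cells. Paired agents were dosed in half-log steps down from about clinical Cmax, or from 10 microM where Cmax was unknown.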
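Also: spheroids exposed to compounds for one week before readout.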
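For viability, T/C in this document: 100% = DMSO vehicle control wells.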

CC1(C)CCC(CN2CCN(c3ccc(C(=O)NS(=O)(=O)c4ccc(NCC5CCOCC5)c([N+](=O)[O-])c4)c(Oc4cnc5[nH]ccc5c4)c3)CC2)=C(c2ccc(Cl)cc2)C1 + CNC(=O)c1ccc(Nc2nc(OC3CCCC3)c3c(-c4ccc5nc(C)oc5c4)c[nH]c3n2)c(OC)c1
IC50 (second compound 0.0316 µM): 2890 nM
IC50 (second compound 0.1 µM): 3200 nM
IC50 (second compound 0.316 µM): 2440 nM
IC50 (second compound 1 µM): 2300 nM
IC50 (second compound 3.16 µM): 751 nM
IC50 (second compound 10 µM): 35.2 nM
viability, T/C (second compound 0.0316 µM, first compound 0.0316 µM): 105%
viability, T/C (second compound 0.0316 µM, first compound 0.1 µM): 80.1%
viability, T/C (second compound 0.0316 µM, first compound 0.316 µM): 93.6%
viability, T/C (second compound 0.0316 µM, first compound 1 µM): 94.4%
viability, T/C (second compound 0.0316 µM, first compound 3.16 µM): 46.3%
viability, T/C (second compound 0.0316 µM, first compound 10 µM): 1.33%
viability, T/C (second compound 0.1 µM, first compound 0.0316 µM): 104%
viability, T/C (second compound 0.1 µM, first compound 0.1 µM): 113%
viability, T/C (second compound 0.1 µM, first compound 0.316 µM): 82.1%
viability, T/C (second compound 0.1 µM, first compound 1 µM): 94%
viability, T/C (second compound 0.1 µM, first compound 3.16 µM): 47.8%
viability, T/C (second compound 0.1 µM, first compound 10 µM): 0.8%
viability, T/C (second compound 0.316 µM, first compound 0.0316 µM): 105%
viability, T/C (second compound 0.316 µM, first compound 0.1 µM): 85.2%
viability, T/C (second compound 0.316 µM, first compound 0.316 µM): 70.7%
viability, T/C (second compound 0.316 µM, first compound 1 µM): 76.8%
viability, T/C (second compound 0.316 µM, first compound 3.16 µM): 46.9%
viability, T/C (second compound 0.316 µM, first compound 10 µM): 1.58%
viability, T/C (second compound 1 µM, first compound 0.0316 µM): 64.8%
viability, T/C (second compound 1 µM, first compound 0.1 µM): 56.7%
viability, T/C (second compound 1 µM, first compound 0.316 µM): 55.8%
viability, T/C (second compound 1 µM, first compound 1 µM): 68.5%
viability, T/C (second compound 1 µM, first compound 3.16 µM): 45.8%
viability, T/C (second compound 1 µM, first compound 10 µM): 0.6%
viability, T/C (second compound 3.16 µM, first compound 0.0316 µM): 59.1%
viability, T/C (second compound 3.16 µM, first compound 0.1 µM): 33.4%
viability, T/C (second compound 3.16 µM, first compound 0.316 µM): 63.3%
viability, T/C (second compound 3.16 µM, first compound 1 µM): 48.4%
viability, T/C (second compound 3.16 µM, first compound 3.16 µM): 26.5%
viability, T/C (second compound 3.16 µM, first compound 10 µM): 2.21%
viability, T/C (second compound 10 µM, first compound 0.0316 µM): 55%
viability, T/C (second compound 10 µM, first compound 0.1 µM): 42.5%
viability, T/C (second compound 10 µM, first compound 0.316 µM): 40.2%
viability, T/C (second compound 10 µM, first compound 1 µM): 42.3%
viability, T/C (second compound 10 µM, first compound 3.16 µM): 16.3%
viability, T/C (second compound 10 µM, first compound 10 µM): 2.68%

NC(=O)C(=Cn1cnc(-c2cc(C(F)(F)F)cc(C(F)(F)F)c2)n1)c1cncnc1 + CNC(=O)c1ccc(Nc2nc(OC3CCCC3)c3c(-c4ccc5nc(C)oc5c4)c[nH]c3n2)c(OC)c1
IC50 (second compound 0.0316 µM): < 9.49 nM
IC50 (second compound 0.1 µM): < 9.49 nM
IC50 (second compound 0.316 µM): 11.2 nM
IC50 (second compound 1 µM): < 9.49 nM
IC50 (second compound 3.16 µM): < 9.49 nM
IC50 (second compound 10 µM): < 9.49 nM
viability, T/C (second compound 0.0316 µM, first compound 0.00949 µM): 46.7%
viability, T/C (second compound 0.0316 µM, first compound 0.03 µM): 37.3%
viability, T/C (second compound 0.0316 µM, first compound 0.0949 µM): 34.4%
viability, T/C (second compound 0.0316 µM, first compound 0.3 µM): 33.6%
viability, T/C (second compound 0.0316 µM, first compound 0.949 µM): 8.62%
viability, T/C (second compound 0.0316 µM, first compound 3 µM): 2.27%
viability, T/C (second compound 0.1 µM, first compound 0.00949 µM): 45.2%
viability, T/C (second compound 0.1 µM, first compound 0.03 µM): 32.4%
viability, T/C (second compound 0.1 µM, first compound 0.0949 µM): 25.6%
viability, T/C (second compound 0.1 µM, first compound 0.3 µM): 22.8%
viability, T/C (second compound 0.1 µM, first compound 0.949 µM): 4.68%
viability, T/C (second compound 0.1 µM, first compound 3 µM): 0.78%
viability, T/C (second compound 0.316 µM, first compound 0.00949 µM): 53.1%
viability, T/C (second compound 0.316 µM, first compound 0.03 µM): 32.4%
viability, T/C (second compound 0.316 µM, first compound 0.0949 µM): 15.1%
viability, T/C (second compound 0.316 µM, first compound 0.3 µM): 11.8%
viability, T/C (second compound 0.316 µM, first compound 0.949 µM): 3.26%
viability, T/C (second compound 0.316 µM, first compound 3 µM): 0.42%
viability, T/C (second compound 1 µM, first compound 0.00949 µM): 25.9%
viability, T/C (second compound 1 µM, first compound 0.03 µM): 20.6%
viability, T/C (second compound 1 µM, first compound 0.0949 µM): 12%
viability, T/C (second compound 1 µM, first compound 0.3 µM): 3.56%
viability, T/C (second compound 1 µM, first compound 0.949 µM): 1.32%
viability, T/C (second compound 1 µM, first compound 3 µM): 0.36%
viability, T/C (second compound 3.16 µM, first compound 0.00949 µM): 20.4%
viability, T/C (second compound 3.16 µM, first compound 0.03 µM): 16.3%
viability, T/C (second compound 3.16 µM, first compound 0.0949 µM): 10.9%
viability, T/C (second compound 3.16 µM, first compound 0.3 µM): 1.11%
viability, T/C (second compound 3.16 µM, first compound 0.949 µM): 0.26%
viability, T/C (second compound 3.16 µM, first compound 3 µM): 0.36%
viability, T/C (second compound 10 µM, first compound 0.00949 µM): 15.3%
viability, T/C (second compound 10 µM, first compound 0.03 µM): 13.7%
viability, T/C (second compound 10 µM, first compound 0.0949 µM): 5.14%
viability, T/C (second compound 10 µM, first compound 0.3 µM): 0.42%
viability, T/C (second compound 10 µM, first compound 0.949 µM): 0.28%
viability, T/C (second compound 10 µM, first compound 3 µM): 0.34%
